Publication PMC11323006, “Designing Coiled Coils for Heterochiral Complexation to Enhance Binding and Enzymatic Stability” (Biomacromolecules, 2024)
Values belong to the compound of their own block, whether it stands above or below them. Square brackets hold non-standard residues; d marks the D form. Peptide text beside a SMILES is read from it.

Tests used:
Proteinase K [1] = target: Proteinase K (Parengyodontium album, UniProt P06873); assay: in vitro; conditions: Proteinase K 5 μg/mL
Procedure: (§1) Degradation was monitored by HPLC. Solutions of individual coiled coils were prepared at 200 μM in 1× PBS and pH corrected to 7.40 ± 0.05 using 1–15 μL of 1 M NaOH. A stock solution of Proteinase K enzyme was prepared at 0.5 mg/mL. For each pair of peptides, 1.5 mL of each 200 μM solution was mixed, then 30 μL of 0.5 mg/mL Proteinase K was added to the 3 mL total mixed solution to obtain a final concentration of 5 μg/mL Proteinase K. Each degradation solution was stirred at 250 rpm for the duration of the experiment. For each time point, a 1 mL aliquot of degradation solution was added to an HPLC vial, a 100 μL injection was performed on HPLC, and the remaining 900 μL was returned to the bulk degradation solution. To normalize for slight shifts in elution time due to changing solvent or environmental conditions, a MATLAB script (included in SI) was used to align all K4^7 (for heptad degradation) or K3^11 (for hendecad degradation) peaks to the same elution time as the elution at t = 0 h.
(§2) Solutions of K4^7 and E4^7 (200 μM in 1× PBS at pH 7.4) were blended as homochiral (L-K4^7/L-E4^7) or heterochiral (D-K4^7/L-E4^7) mixtures. These blends were then incubated with 5 μg/mL Proteinase K, an enzyme known for its broad-spectrum activity and expected to cleave after the I, A, L, and E residues of these peptides.[40] Immediately after adding Proteinase K, as well as after 1, 3, 6, 12, and 24 h incubations, we used high performance liquid chromatography (HPLC) to monitor the degradation of the coiled coils.
(§3) We incubated solutions of homochiral (L-K3^11/L-E3^11) or heterochiral (D-K3^11/L-E3^11) hendecad coiled coils with 5 μg/mL Proteinase K as we did for the heptad coiled coils (200 μM each in 1× PBS at pH 7.4).

Proteinase K [2] = assay: in vitro; conditions: isolated enzyme proteinase k
Procedure: as §1, §2, §3

[3] = cited from earlier work
Text: For example, 1:1 heterochir ...

[4] = pH 7.4, percent intact by peak area (Normalized Area)

Sequence of Proteinase K (Parengyodontium album, UniProt P06873) (P06873 106-384): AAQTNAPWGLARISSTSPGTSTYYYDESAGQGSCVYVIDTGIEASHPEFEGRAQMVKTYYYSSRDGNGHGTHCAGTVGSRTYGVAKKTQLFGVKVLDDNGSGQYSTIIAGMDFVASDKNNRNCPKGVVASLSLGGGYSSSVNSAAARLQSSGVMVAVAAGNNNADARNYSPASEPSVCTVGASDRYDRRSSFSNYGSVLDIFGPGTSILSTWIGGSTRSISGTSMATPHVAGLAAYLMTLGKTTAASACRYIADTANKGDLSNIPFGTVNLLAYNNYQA

Compound: CC[C@H](C)[C@H](NC(=O)[C@H](CCCCN)NC(=O)[C@H](C)NC(=O)[C@H](C)NC(=O)[C@@H](NC(=O)[C@H](CCCCN)NC(=O)[C@H](CCC(=O)O)NC(=O)[C@H](CCCCN)NC(=O)[C@H](CC(C)C)NC(=O)[C@H](C)NC(=O)[C@H](C)NC(=O)[C@@H](NC(=O)[C@H](CCCCN)NC(=O)[C@H](C)NC(=O)[C@H](C)NC(=O)[C@@H](NC(=O)[C@H](CCCCN)NC(=O)[C@H](CCC(=O)O)NC(=O)[C@H](CCCCN)NC(=O)[C@H](CC(C)C)NC(=O)[C@H](C)NC(=O)[C@H](C)NC(=O)[C@@H](NC(=O)[C@@H](N)CCCCN)[C@@H](C)CC)[C@@H](C)CC)[C@@H](C)CC)[C@@H](C)CC)C(=O)N[C@@H](C)C(=O)N[C@@H](C)C(=O)N[C@@H](CC(C)C)C(=O)N[C@@H](CCCCN)C(=O)N[C@@H](CCC(=O)O)C(=O)N[C@@H](CCCCN)C(=O)N[C@H](C(=O)N[C@@H](C)C(=O)N[C@@H](C)C(N)=O)[C@@H](C)CC [L-K3^11] (H-KIAALKEKIAAKIAALKEKIAAKIAALKEKIAA-NH2)
time to complete degradation (Proteinase K [1]; homochiral blend L-K3^11:L-E3^11, 1× PBS pH 7.4, HPLC): under 6 h
remaining at 1 h, 100 μM (Proteinase K [2]; pH 7.4): 77%
remaining at 3 h, 100 μM (Proteinase K [2]; pH 7.4): 11%
remaining at 6 h, 100 μM (Proteinase K [2]; pH 7.4): 0%
remaining at 12 h, 100 μM (Proteinase K [2]; pH 7.4): 0%
remaining at 30 h, 100 μM (Proteinase K [2]; pH 7.4): 0%

remaining at 3 h, 100 μM (Proteinase K [2]; [4]): 7%
remaining at 6 h, 100 μM (Proteinase K [2]; [4]): 0%
remaining at 12 h, 100 μM (Proteinase K [2]; [4]): 0%
remaining at 168 h, 100 μM (Proteinase K [2]; pH 7.4, percent of the peptide remaining): 23%
Compound: CC[C@H](C)[C@H](NC(=O)[C@H](CCC(=O)O)NC(=O)[C@H](C)NC(=O)[C@H](C)NC(=O)[C@@H](NC(=O)[C@H](CCC(=O)O)NC(=O)[C@H](CCCCN)NC(=O)[C@H](CCC(=O)O)NC(=O)[C@H](CC(C)C)NC(=O)[C@H](C)NC(=O)[C@H](C)NC(=O)[C@@H](NC(=O)[C@H](CCC(=O)O)NC(=O)[C@H](C)NC(=O)[C@H](C)NC(=O)[C@@H](NC(=O)[C@H](CCC(=O)O)NC(=O)[C@H](CCCCN)NC(=O)[C@H](CCC(=O)O)NC(=O)[C@H](CC(C)C)NC(=O)[C@H](C)NC(=O)[C@H](C)NC(=O)[C@@H](NC(=O)[C@@H](N)CCC(=O)O)[C@@H](C)CC)[C@@H](C)CC)[C@@H](C)CC)[C@@H](C)CC)C(=O)N[C@@H](C)C(=O)N[C@@H](C)C(=O)N[C@@H](CC(C)C)C(=O)N[C@@H](CCC(=O)O)C(=O)N[C@@H](CCCCN)C(=O)N[C@@H](CCC(=O)O)C(=O)N[C@H](C(=O)N[C@@H](C)C(=O)N[C@@H](C)C(N)=O)[C@@H](C)CC [L-E3^11] (H-EIAALEKEIAAEIAALEKEIAAEIAALEKEIAA-NH2)

Compound: CC[C@@H](C)[C@@H](NC(=O)[C@H](N)CCCCN)C(=O)N[C@H](C)C(=O)N[C@H](C)C(=O)N[C@H](CC(C)C)C(=O)N[C@H](CCCCN)C(=O)N[C@H](CCC(=O)O)C(=O)N[C@H](CCCCN)C(=O)N[C@@H](C(=O)N[C@H](C)C(=O)N[C@H](C)C(=O)N[C@H](CC(C)C)C(=O)N[C@H](CCCCN)C(=O)N[C@H](CCC(=O)O)C(=O)N[C@H](CCCCN)C(=O)N[C@@H](C(=O)N[C@H](C)C(=O)N[C@H](C)C(=O)N[C@H](CC(C)C)C(=O)N[C@H](CCCCN)C(=O)N[C@H](CCC(=O)O)C(=O)N[C@H](CCCCN)C(=O)N[C@@H](C(=O)N[C@H](C)C(=O)N[C@H](C)C(=O)N[C@H](CC(C)C)C(=O)N[C@H](CCCCN)C(=O)N[C@H](CCC(=O)O)C(N)=O)[C@H](C)CC)[C@H](C)CC)[C@H](C)CC [D-K4^7] (H-[dK][dI][dA][dA][dL][dK][dE][dK][dI][dA][dA][dL][dK][dE][dK][dI][dA][dA][dL][dK][dE][dK][dI][dA][dA][dL][dK][dE]-NH2)
degradation in the heterochiral blend (in words) (Proteinase K [1]; heterochiral blend D-K4^7:L-E4^7, 1× PBS pH 7.4, HPLC, up to 24 h): little to no degradation
remaining at 1 h, 100 μM (Proteinase K [2]; [4]): 97%
remaining at 3 h, 100 μM (Proteinase K [2]; [4]): 97%

Compound: CC[C@@H](C)[C@@H](NC(=O)[C@H](N)CCCCN)C(=O)N[C@H](C)C(=O)N[C@H](C)C(=O)N[C@H](CC(C)C)C(=O)N[C@H](CCCCN)C(=O)N[C@H](CCC(=O)O)C(=O)N[C@H](CCCCN)C(=O)N[C@@H](C(=O)N[C@H](C)C(=O)N[C@H](C)C(=O)N[C@H](CCCCN)C(=O)N[C@@H](C(=O)N[C@H](C)C(=O)N[C@H](C)C(=O)N[C@H](CC(C)C)C(=O)N[C@H](CCCCN)C(=O)N[C@H](CCC(=O)O)C(=O)N[C@H](CCCCN)C(=O)N[C@@H](C(=O)N[C@H](C)C(=O)N[C@H](C)C(=O)N[C@H](CCCCN)C(=O)N[C@@H](C(=O)N[C@H](C)C(=O)N[C@H](C)C(=O)N[C@H](CC(C)C)C(=O)N[C@H](CCCCN)C(=O)N[C@H](CCC(=O)O)C(=O)N[C@H](CCCCN)C(=O)N[C@@H](C(=O)N[C@H](C)C(=O)N[C@H](C)C(N)=O)[C@H](C)CC)[C@H](C)CC)[C@H](C)CC)[C@H](C)CC)[C@H](C)CC [D-K3^11] (H-[dK][dI][dA][dA][dL][dK][dE][dK][dI][dA][dA][dK][dI][dA][dA][dL][dK][dE][dK][dI][dA][dA][dK][dI][dA][dA][dL][dK][dE][dK][dI][dA][dA]-NH2)
stability in the heterochiral complex (in words) (Proteinase K [1]; heterochiral blend D-K3^11:L-E3^11, 1× PBS pH 7.4, HPLC, 30 h incubation): remains largely stable

Compound: (PPG)10
solubility of heterochiral mixtures ([3]; heterochiral mixtures of triple helices): precipitate
solubility of homochiral triple helices ([3]; homochiral triple helices): soluble

remaining at 3 h, 100 μM (Proteinase K [2]; [4]): 74%
remaining at 24 h, 100 μM (Proteinase K [2]; [4]): 0%
Compound: CC[C@H](C)[C@H](NC(=O)[C@H](CCCCN)NC(=O)[C@H](CCC(=O)O)NC(=O)[C@H](CCCCN)NC(=O)[C@H](CC(C)C)NC(=O)[C@H](C)NC(=O)[C@H](C)NC(=O)[C@@H](NC(=O)[C@H](CCCCN)NC(=O)[C@H](CCC(=O)O)NC(=O)[C@H](CCCCN)NC(=O)[C@H](CC(C)C)NC(=O)[C@H](C)NC(=O)[C@H](C)NC(=O)[C@@H](NC(=O)[C@H](CCCCN)NC(=O)[C@H](CCC(=O)O)NC(=O)[C@H](CCCCN)NC(=O)[C@H](CC(C)C)NC(=O)[C@H](C)NC(=O)[C@H](C)NC(=O)[C@@H](NC(=O)[C@@H](N)CCCCN)[C@@H](C)CC)[C@@H](C)CC)[C@@H](C)CC)C(=O)N[C@@H](C)C(=O)N[C@@H](C)C(=O)N[C@@H](CC(C)C)C(=O)N[C@@H](CCCCN)C(=O)N[C@@H](CCC(=O)O)C(N)=O [L-K4^7] (H-KIAALKEKIAALKEKIAALKEKIAALKE-NH2)

Compound: CC[C@H](C)[C@H](NC(=O)[C@H](CCC(=O)O)NC(=O)[C@H](CCCCN)NC(=O)[C@H](CCC(=O)O)NC(=O)[C@H](CC(C)C)NC(=O)[C@H](C)NC(=O)[C@H](C)NC(=O)[C@@H](NC(=O)[C@H](CCC(=O)O)NC(=O)[C@H](CCCCN)NC(=O)[C@H](CCC(=O)O)NC(=O)[C@H](CC(C)C)NC(=O)[C@H](C)NC(=O)[C@H](C)NC(=O)[C@@H](NC(=O)[C@H](CCC(=O)O)NC(=O)[C@H](CCCCN)NC(=O)[C@H](CCC(=O)O)NC(=O)[C@H](CC(C)C)NC(=O)[C@H](C)NC(=O)[C@H](C)NC(=O)[C@@H](NC(=O)[C@@H](N)CCC(=O)O)[C@@H](C)CC)[C@@H](C)CC)[C@@H](C)CC)C(=O)N[C@@H](C)C(=O)N[C@@H](C)C(=O)N[C@@H](CC(C)C)C(=O)N[C@@H](CCC(=O)O)C(=O)N[C@@H](CCCCN)C(N)=O [L-E4^7] (H-EIAALEKEIAALEKEIAALEKEIAALEK-NH2)
time within which the intact peak disappears completely (Proteinase K [1]; heterochiral blend D-K4^7:L-E4^7, 1× PBS pH 7.4, HPLC peak at 6.9 min): ≤ 12 h
remaining at 3 h, 100 μM (Proteinase K [2]; pH 7.4): 71%
remaining at 6 h, 100 μM (Proteinase K [2]; pH 7.4): 12%
remaining at 12 h, 100 μM (Proteinase K [2]; pH 7.4): 1%
remaining at 24 h, 100 μM (Proteinase K [2]; pH 7.4): 0%
